Laboratory results as given in patent US4574127A, “Oxazoles and thiazoles containing an aminohydroxypropoxyphenyl moiety” (Merck & Co., Inc., priority 1984, dated 1986).

Legend:
[1] = target: T1, β1-receptor (Cavia porcellus, UniProt H0W3H1); experiment: in vitro β-adrenergic blocking activity: inhibition of positive chronotropic actions of isoproterenol in isolated guinea pig atrial preparations; conditions: vs isoproterenol, read-out: β1 pA2 (converted)
T1 construct: isolated guinea pig atrial preparations; from tissue; host or cells: guinea pig atria
T1 sequence (H0W3H1 1-470): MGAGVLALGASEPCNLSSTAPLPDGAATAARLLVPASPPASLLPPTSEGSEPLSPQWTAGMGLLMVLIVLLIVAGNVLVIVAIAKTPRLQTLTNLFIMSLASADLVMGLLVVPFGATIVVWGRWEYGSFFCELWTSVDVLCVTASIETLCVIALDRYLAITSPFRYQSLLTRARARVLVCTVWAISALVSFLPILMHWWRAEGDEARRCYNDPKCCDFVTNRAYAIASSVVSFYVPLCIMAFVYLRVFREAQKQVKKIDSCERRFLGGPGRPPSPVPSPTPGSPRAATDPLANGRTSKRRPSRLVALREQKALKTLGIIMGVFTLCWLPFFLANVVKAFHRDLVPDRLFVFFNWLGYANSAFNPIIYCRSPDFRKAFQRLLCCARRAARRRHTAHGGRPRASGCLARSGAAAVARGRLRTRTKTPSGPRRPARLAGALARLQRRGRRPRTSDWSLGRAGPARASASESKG
Protocol: (§1) Expressed in different terms, a smaller amount of a compound of the invention is required to block isoproterenol-induced elevation in heart rate than is required to block the isoproterenol-induced relaxation of the bronchi. […] Med. Chem., 26, 956-7 (1983) pursuant to which in vitro β-adrenergic blocking activity is determined by the interaction with β1 -receptor via inhibition of the positive chronotropic actions of isoproterenol in isolated guinea pig atrial preparations. β2 potency is determined by using isolated guinea pig tracheal chains contracted with PGF2α and by measuring inhibition of isopreterenol-induced relaxation.

[2] = target: T2, β2 (Cavia porcellus, UniProt Q8K4Z4); experiment: β2 potency: inhibition of isoproterenol-induced relaxation of isolated guinea pig tracheal chains contracted with PGF2α; conditions: isolated guinea pig tracheal chains contracted with PGF2α, vs isoproterenol, in vitro; for Kb: read-out: β2 pA2 (converted)
T2 construct: isolated guinea pig tracheal chains; from tissue; host or cells: guinea pig trachea
T2 sequence (Q8K4Z4 whole entry): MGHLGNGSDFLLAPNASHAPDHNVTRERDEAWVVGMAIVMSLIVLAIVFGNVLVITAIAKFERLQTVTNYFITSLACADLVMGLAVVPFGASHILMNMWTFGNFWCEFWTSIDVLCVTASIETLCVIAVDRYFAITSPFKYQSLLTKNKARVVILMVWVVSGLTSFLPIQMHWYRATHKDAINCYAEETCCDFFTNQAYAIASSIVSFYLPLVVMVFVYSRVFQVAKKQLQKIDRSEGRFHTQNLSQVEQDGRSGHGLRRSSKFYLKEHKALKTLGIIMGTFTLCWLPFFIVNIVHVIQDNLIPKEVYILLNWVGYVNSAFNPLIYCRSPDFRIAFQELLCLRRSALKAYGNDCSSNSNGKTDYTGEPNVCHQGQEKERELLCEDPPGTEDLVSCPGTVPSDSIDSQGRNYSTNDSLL
Protocol: as §1

[3] = tested on: β2; experiment: as above; conditions: ratio of ED50 for pulmonary effect (β2) : ED50 for cardiac effect (β1); over 1 = cardioselective
Protocol: as §1

Row | Kb [1] | β2 pA2 [2] | Kb [2] | SMILES | β2:β1 ratio (cardioselectivity) [3]
1 | 1.12 µM | 4.67 | – | COc1ccc(CCNCC(O)COc2ccc(-c3ncco3)cc2)cc1OC (stereo not drawn) [Example 1, 2-{p-[3-(3,4-Dimethoxyphenethylamino)-2-hydroxypropoxy]phenyl}oxazole] | 19
2 | 0.0589 µM | – | 47.9 µM | COc1ccc(CCNC[C@H](O)COc2ccc(-c3nccs3)cc2)cc1OC [Example 2, (S) 2-{p-[3-(3,4-Dimethoxyphenylethyl)amino-2-hydroxypropoxy]phenyl}thiazole] | 813
3 | 2.34 µM | – | 200 µM | OC(CNC1CC1)COc1ccc(-c2nccs2)cc1 (stereo not drawn) [Example 3, 2-[p-(3-Cyclopropylamino-2-hydroxypropoxy)phenyl]thiazole] | 85
